Experimental data taken from patent US20170086461A1, “SYNERGISTIC ANTIMICROBIAL COMPOSITION” (Dow Global Technologies LLC, priority 2015, published 2017).

Tested on: Pseudomonas aeruginosa DSM # 939
Assay: Minimum Inhibitory Concentration (MIC) test with synergy index (Kull method)
Format: cell-based
Conditions: single biocide acting alone; TSB broth, 30° C., 48 hours, ~1×10^6 CFU/ml
Protocol: The synergism of the biocides combination of the present invention was determined using the method described by Kull, F.C., et. al in Applied Microbiology 9:538-541 (1961).
The formula to calculate the synergy index (SI) is
• QA=concentration of compound A in ppm, acting alone produced an end point (growth/no growth) • Qa=concentration of compound A in ppm, in the mixture, which produced an end point (growth/no growth) • QB=concentration of compound B in ppm, acting alone produced an end point (growth/no growth) • Qb=concentration of compound B in ppm, in the mixture, which produced an end point (growth/no growth)
The Minimum Inhibitory Test (MIC) is designed to evaluate the lowest concentration of a biocide, biocide blend or biocide combination to prevent bacteria growing in a defined broth.
Minimum Inhibitory Concentration (MIC) Testing Protocol • 1. […]
The culture was maintained as a glycerol stock at −80° C. in cryovials. […] Reading of the results was carried out by measuring absorbance at 600 nm for each sample at the beginning of the test (tzero) and after incubation (tendpoint). tendpoint was chosen at 48 hours for bacteria. The difference in absorbance between tendpoint and tzero was used to assign a score (Δ>0.2 confirms growth while Δ≦0.2 confirms no growth) from which the MIC values were calculated.

| Compound | Minimum Concentration (active ppm) to Inhibit Growth, active alone |
| --- | --- |
| Cc1cc(O)ccc1Cl [Chlorocresol, 4-chloro-3-methylphenol] | 1539 ppm |
| Cn1sc2ccccc2c1=O [MBIT, 2-methyl-1,2-benzothiazol-3(2H)-one] | 62 ppm |
